Data reported in patent publication US5198336A, “Bioassay for chemicals which generate prooxidant states” (Wisconsin Alumni Research Foundation, priority 1989, dated 1993).

Tested on: submitochondrial electron transport particles (ETP) having competent electron transport enzyme complex I
Test: facilitated electron withdrawal bioassay with SOD-depleted submitochondrial electron transport particles (adrenochrome formation, absorbance at 480 nm)
Format: biochemical, bovine (beef heart)
Conditions: for lowest observable effect concentration (LOEC): concentration giving a response three standard deviations above mean control, HEPES buffer pH 7.2, 1.5 mM epinephrine, 0.5 mg ETP, 125 uM NADH, 10 minute incubation; for lowest observable effect concentration (LOEC) / relative potency to induce a prooxidant state (FIG. 4): 0.2 ug per ml antimycin A; for relative potency to induce a prooxidant state (FIG. 4): ranking among the five agents tested, 0 to 10 ug per ml toxicant
Method: The practice of the present invention began with the creation of submitochondrial electron transport particles (ETP) isolated from beef hearts. These are also referred to as submitochondrial particles. The mitochondria were isolated from bovine heart muscle by the method of Blair, supra. The superoxide dismutase-depleted ETP particles were prepared by sonicating the thawed mitochondria for two minutes in a medium containing 0.25M sucrose and 2 mM EDTA, pH 7.5, at a protein concentration of 25 mg per ml. The result was diluted with an equal volume of 0.25M sucrose and adjusted to a pH of 7.5 after which it was centrifuged for 40 minutes at 105,000×g. The resulting ETP particles were washed in ten volumes of 0.25M sucrose and sedimented by centrifugation. After treatment the ETP particles were stored frozen in buffered 0.25M sucrose at a protein concentration of 20 mg per ml.
The test medium contained 50 mM HEPES buffer, 1.5 mM epinephrine and 0.4 uM antimycin. The medium was adjusted to a pH of 7.2 with 5M potassium hydroxide and dispensed in 1.8 ml aliquots into 1-CM path length glass cuvettes. Either aqueous diluent or the test sample was added in a volume of 20-50 ul so that the final concentration ranged between 0 and 100 ug per ml. Following the addition of 0.5 mg of the SOD-depleted ETP particles suspended in a 0.1 ml 50 mM HEPES buffer, the cuvettes were covered with parafilm and inverted three times to mix the contents. First a base line absorbance reading was taken by the spectrophotometer set for 480 nm.
After the base line reading was taken, the reaction was started by adding 50 ul of 5 mM NADH. The final absorbance readings were then taken after a 10 minute incubation at room temperature. The final absorbance readings were used to calculate a lowest observable effect concentration (LOEC) for each of the chemicals tested. […] It is intended that the LOEC value be analogous to the limited detection value used for environmental samples subject to conventional analysis.
All experiments summarized in this table and in FIG. 4 were conducted with 2 ml HEPES buffer, a pH of 7.2, 1.5 mM epinephrine, 0.2 ug per ml antimycin A, 0.5 mg ETP, 125 uM NADH and 0 to 10 ug per ml of the test toxicant.

For `COc1cccc2c1C(=O)c1c(O)c3c(c(O)c1C2=O)C[C@@](O)(C(=O)CO)C[C@@H]3O[C@H]1C[C@H](N)[C@H](O)[C@H](C)O1` [Adriamycin], which “lowest observable effect concentration (LOEC)” value is on record?
Its value is 6300 µg/L.

What about the “relative potency to induce a prooxidant state (FIG. 4)” value of the same compound?
Its value is “weakest”.

`c1cc[n+]2c(c1)-c1cccc[n+]1CC2` [Diquat] was tested. Which “lowest observable effect concentration (LOEC)” value did it give?
Its value is 1600 µg/L.

With `O=[N+]([O-])c1cc[n+]([O-])c2ccccc12` [4-Nitroquinoline-N-oxide] as the compound, how does the “lowest observable effect concentration (LOEC)” value read?
The value was 1600 µg/L.

How did the “lowest observable effect concentration (LOEC)” value turn out when `C[n+]1ccc(-c2cc[n+](C)cc2)cc1` [Paraquat] was run?
The value was 3500 µg/L.

And the “effect of antimycin A or rotenone on the response to paraquat (FIG. 3)” value (with vs without 0.2 ug per ml antimycin A or 0.2 ug per ml rotenone, absorbance at 480 nm)?
Its value is “increases the rate at which paraquat can draw electrons from the electron transport cascade”.

How did the “lowest observable effect concentration (LOEC)” value turn out when `O=S(=O)(O)c1ccccc1N=Nc1c(S(=O)(=O)O)cc2cc(S(=O)(=O)O)c(N=Nc3ccccc3S(=O)(=O)O)c(O)c2c1O` [Sulfonazo III] was run?
Its value is 320 µg/L.

And the “relative potency to induce a prooxidant state (FIG. 4)” value?
Its value is “strongest inducer of the prooxidant states”.
